Assays:
Rattus norvegicus [1] = assay: Antiinflammatory activity in Wistar albino rat assessed as inhibition of carrageenan-induced increase in paw edema at 10 mg/kg, po after 30 mins (reference value: 30.1 %); assay type: functional; set-up: scale not given: the % may be the effect or the level left
Rattus norvegicus [2] = assay: Antiinflammatory activity in Wistar albino rat assessed as inhibition of carrageenan-induced increase in paw edema at 10 mg/kg, po after 90 mins (reference value: 38.7 %); assay type: functional; set-up: scale not given: the % may be the effect or the level left
[3] = biological target: T1, Prostaglandin G/H synthase 1 (Rattus norvegicus, UniProt Q63921); assay: Inhibition of rat seminal vesicle COX-1 using arachidonic acid as substrate assessed as reduction of PGG2 to PGH2 incubated for 1 min prior to substrate addition measured after 25 secs by chromogenic assay
T1 sequence (Q63921 whole entry): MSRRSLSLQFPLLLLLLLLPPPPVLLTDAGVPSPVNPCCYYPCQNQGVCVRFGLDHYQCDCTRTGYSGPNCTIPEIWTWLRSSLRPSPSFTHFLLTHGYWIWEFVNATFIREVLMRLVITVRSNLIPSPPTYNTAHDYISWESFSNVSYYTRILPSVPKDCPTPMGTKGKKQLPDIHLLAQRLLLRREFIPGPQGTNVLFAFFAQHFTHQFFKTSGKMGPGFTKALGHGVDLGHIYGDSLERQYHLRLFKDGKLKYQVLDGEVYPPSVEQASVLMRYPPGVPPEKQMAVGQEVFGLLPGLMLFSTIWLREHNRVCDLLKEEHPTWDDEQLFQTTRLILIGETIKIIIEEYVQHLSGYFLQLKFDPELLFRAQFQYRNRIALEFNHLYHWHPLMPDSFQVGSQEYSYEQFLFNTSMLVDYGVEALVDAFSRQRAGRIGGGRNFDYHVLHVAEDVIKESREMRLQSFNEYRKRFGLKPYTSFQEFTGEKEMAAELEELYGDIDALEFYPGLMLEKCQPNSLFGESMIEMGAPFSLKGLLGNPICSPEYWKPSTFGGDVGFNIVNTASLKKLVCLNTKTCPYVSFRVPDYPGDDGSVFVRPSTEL

[4] = biological target: T2, Prostaglandin G/H synthase 2 (Homo sapiens, UniProt P35354); assay: Inhibition of human recombinant COX-2 expressed in insect cell system using arachidonic acid as substrate assessed as reduction of PGG2 to PGH2 incubated for 1 min prior to substrate addition measured after 25 secs by chromogenic assay
T2 sequence (P35354 whole entry): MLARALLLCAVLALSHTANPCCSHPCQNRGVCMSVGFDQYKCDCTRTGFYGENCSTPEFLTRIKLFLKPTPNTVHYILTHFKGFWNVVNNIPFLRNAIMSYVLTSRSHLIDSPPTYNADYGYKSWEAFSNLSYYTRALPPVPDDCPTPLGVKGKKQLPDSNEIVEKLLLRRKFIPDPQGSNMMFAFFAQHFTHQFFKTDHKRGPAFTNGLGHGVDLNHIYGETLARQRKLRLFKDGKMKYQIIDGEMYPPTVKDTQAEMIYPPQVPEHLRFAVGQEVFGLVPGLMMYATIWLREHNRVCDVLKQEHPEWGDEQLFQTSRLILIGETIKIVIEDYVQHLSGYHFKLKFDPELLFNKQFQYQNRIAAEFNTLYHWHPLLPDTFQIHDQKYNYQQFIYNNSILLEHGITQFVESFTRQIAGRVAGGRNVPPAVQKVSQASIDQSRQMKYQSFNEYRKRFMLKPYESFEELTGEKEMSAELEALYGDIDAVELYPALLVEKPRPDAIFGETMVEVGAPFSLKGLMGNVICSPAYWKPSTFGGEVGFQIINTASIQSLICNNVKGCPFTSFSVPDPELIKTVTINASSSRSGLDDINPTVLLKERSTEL

[5] = Selectivity index, ratio of IC50 for human recombinant COX-2 to IC50 for rat seminal vesicle COX-1; assay type: tissue-based

Row | SMILES | IC50 [3] [µM] | IC50 [4] [µM] | Activity (Rattus norvegicus [1]) [%] | Activity (Rattus norvegicus [2]) [%] | Ratio IC50 [5]
1 | CCOC(=O)c1c(-c2ccccc2)oc2ccc(Oc3ccccc3C)cc12 | 29.8 | 20.1 | 14.8 | 24.4 | 0.67
2 | CCOC(=O)c1c(-c2ccccc2)oc2ccc(Oc3ccccn3)cc12 | – | – | 25.1 | 32.6 | –
3 | CCOC(=O)c1c(-c2ccccc2)oc2ccc(Oc3ccc4ccccc4c3)cc12 | – | – | 20.1 | 32.6 | –
4 | CS(=O)(=O)Nc1ccc([N+](=O)[O-])cc1Oc1ccccc1 [NIMESULIDE] | – | – | 14.1 | 23.4 | –
5 | CCOC(=O)c1c(C)oc2ccc(Oc3ccc(OC)cc3)cc12 | 38.1 | 8.6 | 9.5 | 12.3 | 0.23
6 | CCOC(=O)c1c(C)oc2ccc(Oc3ccc(C)cc3)cc12 | 49.7 | 4.2 | 14.1 | 25.8 | 0.08
7 | CCOC(=O)c1c(C)oc2ccc(Oc3ccc4ccccc4c3)cc12 | 47.5 | 15.8 | – | – | 0.35

Continued by falling IC50 [3], values first:

Row | IC50 [3] [µM] | IC50 [4] [µM] | SMILES | Activity (Rattus norvegicus [1]) [%] | Activity (Rattus norvegicus [2]) [%] | Ratio IC50 [5]
8 | 42.5 | 18.2 | CCOC(=O)c1c(-c2ccccc2)oc2ccc(Oc3ccccc3)cc12 | 15.8 | 28.4 | 0.43
9 | 35.8 | 6.1 | CCOC(=O)c1c(C)oc2ccc(Oc3ccccc3C)cc12 | 10.1 | 20.4 | 0.17
10 | 30.8 | 18.5 | CCOC(=O)c1c(C)oc2ccc(Oc3ccccc3)cc12 | 15.7 | 23.8 | 0.59
11 | 27.9 | 8.1 | CCOC(=O)c1c(C)oc2ccc(Oc3ccccn3)cc12 | – | 18.9 | 0.29
12 | 26.2 | 19.2 | CCOC(=O)c1c(-c2ccccc2)oc2ccc(Oc3ccc(C)cc3)cc12 | 22.1 | 32.6 | 0.74
